This note sets out measurements from ChEMBL document CHEMBL5537147, “Development of membrane-targeting TPP+-chloramphenicol conjugates to combat methicillin-resistant staphylococcus aureus (MRSA) infections” (Eur J Med Chem, 2024).

Data set [1] concerns Acinetobacter baumannii. Kind of data set: Antibacterial activity against Acinetobacter baumannii 1310 assessed as inhibition of bacterial growth incubated for 16 to 18 hrs by CLSI based two-fold serial dilution method. As to conditions: time 16-18 hrs. The format is functional.
Data set [2] has as its system Staphylococcus aureus. Kind of data set: Antibacterial activity against methicillin-resistant Staphylococcus aureus USA300 assessed as inhibition of bacterial growth incubated for 16 to 18 hrs by CLSI based two-fold serial dilution method. Type of data set: functional. As to conditions: time 16-18 hrs.
Data set [3] has as its system Acinetobacter baumannii. Kind of data set: Antibacterial activity against Acinetobacter baumannii 1309 assessed as inhibition of bacterial growth incubated for 16 to 18 hrs by CLSI based two-fold serial dilution method. The format is functional. Particulars: time 16-18 hrs.
Data set [4] concerns Staphylococcus aureus. Kind of data set: Antibacterial activity against methicillin-resistant Staphylococcus aureus 330041 assessed as inhibition of bacterial growth incubated for 16 to 18 hrs by CLSI based two-fold serial dilution method. Type of data set: functional. As to conditions: time 16-18 hrs.
Data set [5] concerns Pseudomonas aeruginosa. Kind of data set: Antibacterial activity against Pseudomonas aeruginosa 408 assessed as inhibition of bacterial growth incubated for 16 to 18 hrs by CLSI based two-fold serial dilution method. Type of data set: functional. As to conditions: time 16-18 hrs.
The test system of data set [6] is Staphylococcus aureus. Kind of data set: Antibacterial activity against methicillin-resistant Staphylococcus aureus 3392 assessed as inhibition of bacterial growth incubated for 16 to 18 hrs by CLSI based two-fold serial dilution method. As to conditions: time 16-18 hrs. Type of data set: functional.
Data set [7] is described as follows: Cytotoxicity against human L02 cells assessed as inhibition of cell growth incubated for 24 hrs by MTT assay. Type of data set: toxicity, cell-based. In general terms: Tetrazolium dyes change colour on reduction, which living cells bring about.
The test system of data set [8] is Pseudomonas aeruginosa. Kind of data set: Antibacterial activity against Pseudomonas aeruginosa 535 assessed as inhibition of bacterial growth incubated for 16 to 18 hrs by CLSI based two-fold serial dilution method. The format is functional. Particulars: time 16-18 hrs.
For data set [9], the system named is Staphylococcus aureus. Kind of data set: Antibacterial activity against methicillin-resistant Staphylococcus aureus 3390 assessed as inhibition of bacterial growth incubated for 16 to 18 hrs by CLSI based two-fold serial dilution method. Type of data set: functional. Particulars: time 16-18 hrs.

As for `Br.O=C(CCCCC[P+](c1ccccc1)(c1ccccc1)c1ccccc1)OC[C@H](NC(=O)C(Cl)Cl)[C@H](O)c1ccc([N+](=O)[O-])cc1`, the MIC (in general, the least concentration at which growth counts as inhibited) was more than 64 mg/L in data set [1]; 8 mg/L in [2]; more than 64 mg/L in [3]; 16 mg/L in [4]; more than 64 mg/L in data set [5]; 8 mg/L in data set [6]. For the same compound, the MIC was more than 64 mg/L in data set [8] and 16 mg/L in [9]. The IC50 (in general, the concentration that inhibits the measured activity by half) at 24 h in data set [7] is more than 64 mg/L.

Turning to `Br.O=C(CCCCCCCCCCC[P+](c1ccccc1)(c1ccccc1)c1ccccc1)OC[C@H](NC(=O)C(Cl)Cl)[C@H](O)c1ccc([N+](=O)[O-])cc1`, the MIC in data set [1] is more than 64 mg/L; in data set [2] it was 2 mg/L; in data set [3], more than 64 mg/L; in data set [4], 2 mg/L; in data set [5], more than 64 mg/L; in data set [6] it was 2 mg/L. For the same compound, the MIC in [8] is more than 64 mg/L; in [9], 2 mg/L. In data set [7], the IC50 at 24 h was determined as 16.5 mg/L.

Consider `Br.Cc1ccc([P+](CCCCCCCCCC(=O)OC[C@H](NC(=O)C(Cl)Cl)[C@H](O)c2ccc([N+](=O)[O-])cc2)(c2ccc(C)cc2)c2ccc(C)cc2)cc1`, for which the MIC in data set [1] is more than 64 mg/L; in [2], 0.5 mg/L; in [3], more than 64 mg/L; in data set [4] it was 0.5 mg/L; in data set [5] it was more than 64 mg/L; in data set [6], 0.5 mg/L. Besides, the values for the MIC in [8] and in data set [9] were more than 64 mg/L and 0.5 mg/L, respectively. The IC50 at 24 h in data set [7] is 14.7 mg/L.

In the case of `O=C(O)CCCCCCCCC[P+](c1ccc(F)cc1)(c1ccc(F)cc1)c1ccc(F)cc1.[Br-]`, the MIC in data set [1], in [2], in data set [3], in data set [4], in data set [5] and in data set [6] was more than 64 mg/L in each case. For the same compound, the MIC in data set [8] and in data set [9] was more than 64 mg/L in each case. The IC50 at 24 h in data set [7] was more than 64 mg/L.

In the case of `O=C(O)CCCCCCCCC[P+](c1cccc(F)c1)(c1cccc(F)c1)c1cccc(F)c1.[Br-]`, the minimum inhibitory concentration (MIC) in data set [1], in data set [2], in data set [3], in [4], in data set [5] and in data set [6] was more than 64 mg/L throughout. For the same compound, the MIC in data set [8] and in data set [9] was more than 64 mg/L throughout. Further, the IC50 at 24 h in [7] was more than 64 mg/L.

Turning to `COc1cccc([P+](CCCCCCCCCC(=O)O)(c2cccc(OC)c2)c2cccc(OC)c2)c1.[Br-]`, the MIC in data set [1] was more than 64 mg/L; in [2] it was 32 mg/L; in data set [3], 64 mg/L; in data set [4], 32 mg/L; in data set [5], 64 mg/L; in [6], 16 mg/L. The results for the MIC in data set [8] and in [9] were more than 64 mg/L and 32 mg/L, respectively. The IC50 at 24 h in data set [7] turned out to be 15.4 mg/L.

For the compound `O=C(O)CCCCCCCCCCC[P+](c1ccccc1)(c1ccccc1)c1ccccc1.[Br-]`, the MIC in data set [1], in [2], in data set [3], in [4], in data set [5] and in data set [6] was more than 64 mg/L throughout. The MIC in [8] and in data set [9] was more than 64 mg/L each time. Also, the IC50 at 24 h in data set [7] is more than 64 mg/L.

Regarding `O=C(O)CCCCC[P+](c1ccccc1)(c1ccccc1)c1ccccc1.[Br-]`, the MIC in [1], in data set [2], in data set [3], in [4], in [5] and in data set [6] was more than 64 mg/L throughout. The MIC in data set [8] and in data set [9] was more than 64 mg/L in each case. In addition, in [7], the IC50 at 24 h is more than 64 mg/L.

For the compound `Br.O=C(CCCCCCC[P+](c1ccccc1)(c1ccccc1)c1ccccc1)OC[C@H](NC(=O)C(Cl)Cl)[C@H](O)c1ccc([N+](=O)[O-])cc1`, the MIC is more than 64 mg/L in data set [1]; 2 mg/L in [2]; more than 64 mg/L in data set [3]; 2 mg/L in [4]; more than 64 mg/L in [5]; 2 mg/L in [6]. For the same compound, the MIC in [8] is more than 64 mg/L; in data set [9], 2 mg/L. Moreover, the IC50 at 24 h in [7] was more than 64 mg/L.

In the case of `Br.COc1ccc([P+](CCCCCCCCCC(=O)OC[C@H](NC(=O)C(Cl)Cl)[C@H](O)c2ccc([N+](=O)[O-])cc2)(c2ccc(OC)cc2)c2ccc(OC)cc2)cc1`, the MIC was more than 64 mg/L in data set [1]; 2 mg/L in data set [2]; more than 64 mg/L in [3]; 1 mg/L in data set [4]; more than 64 mg/L in data set [5]; 2 mg/L in [6]. The MIC in data set [8] was more than 64 mg/L; in data set [9] it was 2 mg/L. Also, the IC50 at 24 h in [7] came to 23.5 mg/L.

For `O=C(O)CCCCCCCCC[P+](c1ccc(Cl)cc1)(c1ccc(Cl)cc1)c1ccc(Cl)cc1.[Br-]`, the MIC in data set [1], in [2], in [3], in data set [4], in data set [5] and in data set [6] was more than 64 mg/L throughout. Also, the MIC in data set [8] and in data set [9] was more than 64 mg/L throughout. Also, in [7], the IC50 at 24 h stood at 30.8 mg/L.

Consider `O=C(O)CCC[P+](c1ccccc1)(c1ccccc1)c1ccccc1.[Br-]`, for which the MIC in data set [1], in [2], in [3], in data set [4], in data set [5] and in [6] was more than 64 mg/L in each case. In addition, the MIC in data set [8] and in data set [9] was more than 64 mg/L throughout. Also, in data set [7], the IC50 at 24 h was more than 64 mg/L.

Regarding `O=C(O)CCCCCCCCC[P+](c1ccc(C(F)(F)F)cc1)(c1ccc(C(F)(F)F)cc1)c1ccc(C(F)(F)F)cc1.[Br-]`, the minimum inhibitory concentration (MIC) in [1], in data set [2], in [3], in data set [4], in data set [5] and in data set [6] was more than 64 mg/L throughout. The MIC in data set [8] and in data set [9] was more than 64 mg/L each time. Moreover, the IC50 at 24 h in data set [7] was more than 64 mg/L.

For `Br.O=C(CCCCCCCCC[P+](c1ccc(C(F)(F)F)cc1)(c1ccc(C(F)(F)F)cc1)c1ccc(C(F)(F)F)cc1)OC[C@H](NC(=O)C(Cl)Cl)[C@H](O)c1ccc([N+](=O)[O-])cc1`, the MIC in [1] is more than 64 mg/L; in data set [2], 1 mg/L; in [3] it was more than 64 mg/L; in data set [4], 1 mg/L; in data set [5], more than 64 mg/L; in data set [6], 1 mg/L. Besides, the MIC in data set [8] is more than 64 mg/L; in [9] it was 1 mg/L. For the same compound, the half-inhibitory concentration (IC50) at 24 h in data set [7] was more than 32 mg/L.

`O=C(O)CC[P+](c1ccccc1)(c1ccccc1)c1ccccc1.[Br-]`: the MIC in data set [1], in data set [2], in data set [3], in data set [4], in data set [5] and in data set [6] was more than 64 mg/L throughout. Further, the MIC in data set [8] and in data set [9] was more than 64 mg/L each time. The IC50 at 24 h in data set [7] is more than 64 mg/L.
